Patent publication US20060211697A1, “2-(2 Or 4-substituted aryloxy)-phenol derivatives as antibacterial agents” (priority 2004, published 2006)
In brackets after ≈: the same amount, converted by molar mass. Where two headings read alike, the source gives them in different places.

What was measured:
S. aureus 29213 = assay: MIC, broth dilution method, S. aureus; assay type: cell-based
Description: (§1) Minimum Inhibition Concentration (MIC), Broth Dilution Method:
(§2) The compounds of the present invention were tested against an assortment of Gram positive and Gram negative organisms using standard microtitration techniques well known to those skilled in the art. Cultures of bacteria are initially brought up from the freezer by streaking a loopful onto agar plates under the appropriate conditions. For instance bacterial stocks are streaked onto chocolate agar and then incubated for 18 hours at 35-37° C. in a 5% CO2 incubator. Five to ten colonies are picked from the chocolate agar plate for subculture to Brain-Heart infusion (BHI) broth, Mueller Hinton broth, or BHI containing 4% serum and incubated under the appropriate conditions. The ability of the test compound to act as an antimicrobial is determined by the ability to inhibit bacterial growth in vitro. The optical density of the culture of organisms in the presence of an active compound is compared to the optical density of the same organism untreated. The activity of the compounds is described as either negative or the lowest concentration inhibiting growth (Minimum Inhibitory Concentration [MIC]).

S. pneumoniae 11733 = assay: MIC, broth dilution method, S. pneumoniae; assay type: cell-based
Description: as §1, §2

H. influenzae 43095 = assay: MIC, broth dilution method, H. influenzae; assay type: cell-based
Description: as §1, §2

E. coli 43888 = assay: MIC, broth dilution method, E. coli; assay type: cell-based
Description: as §1, §2

[1] = Staphylococcus aureus, 29213, Gram-positive bacteria, in vitro, broth dilution, read-out: MIC S. aureus 29213
[2] = Streptococcus pneumoniae, 11733, Gram-positive bacteria, in vitro, broth dilution, read-out: MIC S. pneumoniae 11733
[3] = Haemophilus influenzae, 43095, Gram-negative bacteria, in vitro, broth dilution, read-out: MIC H. influenzae 43095
[4] = Escherichia coli, 43888, Gram-negative bacteria, in vitro, broth dilution, read-out: MIC E. coli 43888

melting point | SMILES | MIC (S. aureus 29213; [1]) [µg/mL] | MIC (S. pneumoniae 11733; [2]) [µg/mL] | MIC (H. influenzae 43095; [3]) [µg/mL] | MIC (E. coli 43888; [4]) [µg/mL] | other results
195 to 198 °C | Cc1ccc(Oc2ccc(-c3noc(=O)[nH]3)cc2)c(O)c1 |  |  |  |  | 
 | O=C(O)c1nc(-c2ccccc2Oc2ccc(Cl)cc2O)no1 [Example 54, 3-[2-(4-Chloro-2-hydroxy-phenoxy)-phenyl]-[1,2,4]oxadiazole-5-carboxylic acid] | 0.05 (≈ 0.15 µM) | 3.1 (≈ 9.32 µM) | 0.2 (≈ 0.601 µM) | 0.2 (≈ 0.601 µM) | 
148 to 151 °C | COC(=O)c1cn(-c2ccc(Oc3ccc(C)cc3O)cc2)nn1 |  |  |  |  | 
 | Cc1ccc(Oc2ccccc2NN)c(O)c1 [Example 66, 2-(2-Hydrazino-phenoxy)-5-methyl-phenol] |  |  |  |  | MIC (S. aureus 29213; Staphylococcus aureus, 29213, read-out: MIC S. aureus 29213): 0.1 µg/mL (≈ 0.434 µM); MIC (S. pneumoniae 11733; Streptococcus pneumoniae, 11733, read-out: MIC S. pneumoniae 11733): 3.1 µg/mL (≈ 13.5 µM); MIC (H. influenzae 43095; Haemophilus influenzae, 43095, read-out: MIC H. influenzae 43095): 0.1 µg/mL (≈ 0.434 µM); MIC (E. coli 43888; Escherichia coli, 43888, read-out: MIC E. coli 43888): 0.8 µg/mL (≈ 3.47 µM)
 | Cc1ccc(Oc2ccc([N+](=O)[O-])cc2-c2nnn[nH]2)c(O)c1 [Example 16, 5-Methyl-2-[4-nitro-2-(1H-tetrazol-5-yl)-phenoxy]-phenol and 5-methyl-2-[4-nitro-2-(2H-tetrazol-5-yl)-phenoxy]-phenol] | 2 (≈ 6.38 µM) | 7.9 (≈ 25.2 µM) | 31.3 (≈ 99.9 µM) | 31.3 (≈ 99.9 µM) | 
 | Oc1cc(F)ccc1Oc1ccccc1-c1ncon1 [Example 42, 5-Fluoro-2-(2-[1,2,4]oxadiazol-3-yl-phenoxy)-phenol] | 1 (≈ 3.67 µM) | > 32 | 1 (≈ 3.67 µM) | 1 (≈ 3.67 µM) | 
 | Cc1ccc(Oc2ccccc2-c2ncon2)c(O)c1 [Example 43, 5-Methyl-2-(2-[1,2,4]oxadiazol-3-yl-phenoxy)-phenol] | 0.5 (≈ 1.86 µM) | 15.7 (≈ 58.5 µM) | 4 (≈ 14.9 µM) | 0.5 (≈ 1.86 µM) | 
153 to 155 °C | COC(=O)c1cn(-c2ccccc2Oc2ccc(C)cc2O)nn1 |  |  |  |  | 
82 to 83 °C | CCOC(=O)c1nc(-c2ccccc2Oc2ccc(F)cc2O)no1 |  |  |  |  | 
143 to 145 °C | Cc1ccc(Oc2ccc(-c3ccsc3)cc2O)c(O)c1 |  |  |  |  | 
 | Cc1ccc(Oc2ccc(-n3cc(C(=O)O)cn3)cc2)c(O)c1 [Example 71, 1-[4-(2-Hydroxy-4-methyl-phenoxy)-phenyl]-1H-pyrazole-4-carboxylic acid] | 3.1 (≈ 9.99 µM) | 12.5 (≈ 40.3 µM) | 25 (≈ 80.6 µM) | > 25 | 
213 to 214 °C | Cc1ccc(Oc2ccccc2-c2noc(=O)[nH]2)c(O)c1 |  |  |  |  | 
 | Cc1ccc(Oc2ccc(-c3noc(C(=O)O)n3)cc2)c(O)c1 [Example 40, 3-[4-(2-Hydroxy-4-methyl-phenoxy)-phenyl]-[1,2,4]oxadiazole-5-carboxylic acid] | 4 (≈ 12.8 µM) | 16 (≈ 51.2 µM) | 4 (≈ 12.8 µM) | 8 (≈ 25.6 µM) | 
 | Cc1ccc(Oc2ccc(-c3ccco3)cc2O)c(O)c1 [Example 4, 2-(2-Hydroxy-4-methyl-phenoxy)-5-(furan-2-yl)-phenol] | 2 (≈ 7.08 µM) | 1 (≈ 3.54 µM) | 7.9 (≈ 28 µM) | 0.5 (≈ 1.77 µM) | 
134 to 135 °C | COC(=O)C1CSC(c2ccc(Oc3ccc(C)cc3O)cc2)N1 (stereo not shown) |  |  |  |  | 
 | Oc1cc(Cl)ccc1Oc1ccccc1-c1ncon1 [Example 57, 5-Chloro-2-(2-[1,2,4]oxadiazol-3-yl-phenoxy)-phenol] | 0.05 (≈ 0.173 µM) | 6.2 (≈ 21.5 µM) | 0.05 (≈ 0.173 µM) | 0.05 (≈ 0.173 µM) | 
 | Oc1cc(F)ccc1Oc1ccc(Cl)cc1-c1nnn[nH]1 [Example 18, 2-[4-Chloro-2-(1H-tetrazol-5-yl)-phenoxy]-5-fluoro-phenol and 2-[4-chloro-2-(2H-tetrazol-5-yl)-phenoxy]-5-fluoro-phenol] | 0.125 (≈ 0.408 µM) | 0.25 (≈ 0.815 µM) | 4 (≈ 13 µM) | 7.9 (≈ 25.8 µM) | 
 | Cc1ccc(Oc2ccc(-c3nnc(N)o3)cc2)c(O)c1 [Example 24, 2-[4-(5-Amino-[1,3,4]oxadiazol-2-yl)-phenoxy]-5-methyl-phenol] | 0.8 (≈ 2.82 µM) | 12.5 (≈ 44.1 µM) | 12.5 (≈ 44.1 µM) | 6.2 (≈ 21.9 µM) | 

melting point | SMILES | MIC (S. aureus 29213; [1]) [µg/mL] | MIC (S. pneumoniae 11733; [2]) [µg/mL] | MIC (H. influenzae 43095; [3]) [µg/mL] | MIC (E. coli 43888; [4]) [µg/mL] | other results
 | CCOC(=O)c1nc(-c2ccccc2Oc2ccc(Cl)cc2O)no1 [Example 51, 3-[2-(4-Chloro-2-hydroxy-phenoxy)-phenyl]-[1,2,4]oxadiazole-5-carboxylic acid ethyl ester] | 0.4 (≈ 1.11 µM) | > 25 | 3.1 (≈ 8.59 µM) | 6.2 (≈ 17.2 µM) | 
 | Cc1ccc(Oc2ccc(NN)cc2)c(O)c1 [Example 67, 2-(4-Hydrazino-phenoxy)-5-methyl-phenol] | 0.1 (≈ 0.434 µM) | 6.2 (≈ 26.9 µM) | 0.1 (≈ 0.434 µM) | 0.4 (≈ 1.74 µM) | 
 | Oc1cc(F)ccc1Oc1ccc(Cl)cc1-c1ncon1 [Example 44, 2-(4-Chloro-2-[1,2,4]oxadiazol-3-yl-phenoxy)-5-fluoro-phenol] | 0.5 (≈ 1.63 µM) | > 32 | 2 (≈ 6.52 µM) | 2 (≈ 6.52 µM) | 
 | CCOC(=O)c1cnn(-c2ccc(Oc3ccc(C)cc3O)cc2)c1 [Example 69, 1-[4-(2-Hydroxy-4-methyl-phenoxy)-phenyl]-1H-pyrazole-4-carboxylic acid ethyl ester] | 0.2 (≈ 0.591 µM) | > 25 | > 25 | 1.6 (≈ 4.73 µM) | 
 | Cc1ccc(Oc2ccc([N+](=O)[O-])cc2-c2noc(C(=O)O)n2)c(O)c1 [Example 39, 3-[2-(2-Hydroxy-4-methyl-phenoxy)-5-nitro-phenyl]-[1,2,4]oxadiazole-5-carboxylic acid] | 0.5 (≈ 1.4 µM) | > 32 | 8 (≈ 22.4 µM) | 4 (≈ 11.2 µM) | 
159 to 160 °C | Cc1ccc(Oc2ccc([N+](=O)[O-])cc2-c2ncon2)c(O)c1 |  |  |  |  | 
118 to 119 °C | CCOC(=O)c1cnn(-c2ccccc2Oc2ccc(C)cc2O)c1 |  |  |  |  | 
64 to 65 °C | N/C(=N\O)c1ccccc1Oc1ccc(F)cc1O |  |  |  |  | 
 | Cc1ccc(Oc2ccc(/C(N)=N/O)cc2)c(O)c1 [Example 30, N-Hydroxy-4-(2-hydroxy-4-methyl-phenoxy)-benzamidine] | 4 (≈ 15.5 µM) | 62.5 (≈ 242 µM) | 31.3 (≈ 121 µM) | 0.5 (≈ 1.94 µM) | 
 | Oc1cc(F)ccc1Oc1ccc(-c2ccco2)cc1O [Example 12, 5-(Furan-2-yl)-2-(4-fluoro-2-hydroxy-phenoxy)-phenol] | 4 (≈ 14 µM) | 0.5 (≈ 1.75 µM) | 7.9 (≈ 27.6 µM) | 2 (≈ 6.99 µM) | 
85 to 87 °C | Cc1ccc(Oc2ccccc2/C(N)=N/O)c(O)c1 |  |  |  |  | 
 | Cc1ccc(Oc2ccccc2-c2noc(C(=O)O)n2)c(O)c1 [Example 37, 3-[2-(2-Hydroxy-4-methyl-phenoxy)-phenyl]-[1,2,4]oxadiazole-5-carboxylic acid] | 0.125 (≈ 0.4 µM) | 8 (≈ 25.6 µM) | 0.5 (≈ 1.6 µM) | 0.5 (≈ 1.6 µM) | 
95 to 96 °C | Cc1ccc(Oc2ccc(-n3cccc3)cc2)c(O)c1 |  |  |  |  | 
127 to 128 °C | O=C(O)c1nc(-c2ccccc2Oc2ccc(F)cc2O)no1 |  |  |  |  | 
 | Oc1cc(Cl)ccc1Oc1ccc(Cl)cc1-c1nnn[nH]1 [Example 19, 5-chloro-2-[4-Chloro-2-(1H-tetrazol-5-yl)-phenoxy]-phenol and 5-chloro-2-[4-chloro-2-(2H-tetrazol-5-yl)-phenoxy]-phenol] | 0.125 (≈ 0.387 µM) | 2 (≈ 6.19 µM) | 2 (≈ 6.19 µM) | 4 (≈ 12.4 µM) | 
 | Oc1ccccc1Oc1ccccc1-c1nnn[nH]1 [Example 20, 2-[2-(1H-Tetrazol-5-yl)-phenoxy]-phenol and 2-[2-(2H-tetrazol-5-yl)-phenoxy]-phenol] | 0.25 (≈ 0.983 µM) | 4 (≈ 15.7 µM) | 4 (≈ 15.7 µM) | 2 (≈ 7.87 µM) | 
 | Cc1ccc(Oc2ccc(-c3ncon3)cc2)c(O)c1 [Example 45, 5-Methyl-2-(4-[1,2,4]oxadiazol-3-yl-phenoxy)-phenol] | 0.5 (≈ 1.86 µM) | 1 (≈ 3.73 µM) | 4 (≈ 14.9 µM) | 1 (≈ 3.73 µM) | 

SMILES | melting point | MIC (S. aureus 29213; [1]) [µg/mL] | MIC (S. pneumoniae 11733; [2]) [µg/mL] | MIC (H. influenzae 43095; [3]) [µg/mL] | MIC (E. coli 43888; [4]) [µg/mL] | other results
Cc1ccc(Oc2ccc(C3NC(C(=O)O)CCS3)cc2)c(O)c1 (stereo not shown) [Example 8, 2-[4-(2-Hydroxy-4-methyl-phenoxy)-phenyl]-[1, 3]thiazinane-4-carboxylic acid] | 140 to 145 °C (dec.) | 0.5 (≈ 1.45 µM) | 4 (≈ 11.6 µM) | 0.5 (≈ 1.45 µM) | 4 (≈ 11.6 µM) | 
Cc1ccc(Oc2ccc(C3NC(C(=O)O)CCS3)cc2C#N)c(O)c1 (stereo not shown) [Example 10, 2-[3-Cyano-4-(2-hydroxy-4-methyl-phenoxy)-phenyl]-[1,3]thiazinane-4-carboxylic acid] | 147 to 150 °C (dec.) | 2 (≈ 5.4 µM) | 2 (≈ 5.4 µM) | 2 (≈ 5.4 µM) | 4 (≈ 10.8 µM) | 
Nc1nnc(-c2ccccc2Oc2ccc(F)cc2O)s1 [Example 22, 2-[2-(5-Amino-[1,3,4]thiadiazol-2-yl)-phenoxy]-5-fluoro-phenol] | 250 to 255 °C (dec.) | 12.5 (≈ 41.2 µM) | 25 (≈ 82.4 µM) | > 25 | > 25 | 
Cc1ccc(Oc2ccc(C3NC(C(=O)O)CS3)cc2C#N)c(O)c1 (stereo not shown) [Example 9, 2-[3-Cyano-4-(2-hydroxy-4-methyl-phenoxy)-phenyl]-thiazolidine-4-carboxylic acid] | 150 to 152 °C | 2 (≈ 5.61 µM) | 4 (≈ 11.2 µM) | 4 (≈ 11.2 µM) | 4 (≈ 11.2 µM) | 
